Each structure is given as a SMILES string.

Broadly, the inhibition is the percentage by which the read-out fell short of the control. Higher therefore signals strong suppression.

Experiment in all cases: Kinobeads competition binding, HL60 cell lysate
Set-up in all cases: endogenous in cells; host or cells: HL60
Conditions in all cases: 10 μM free compound

One assay deals with IRAK1 (Homo sapiens, UniProt P51617). On the procedure: (§1) To one aliquot of cell lysate 10 μM of the free compound (FIG. 3, CZC31326) was added and allowed to bind to proteins in the lysate. Then the affinity matrix with the immobilized compound (Example 1) was added to capture proteins that were not interacting with the previously added free compound. Beads were separated from the lysate and bead bound proteins were eluted in SDS sample buffer and subsequently separated by SDS-Polyacrylamide gel electrophoresis (FIG. 4). Suitable gel bands were cut out and subjected to in-gel proteolytic digestion with trypsin. The second lysate aliquot was processed identically, however no free compound was added (DMSO solvent control). Peptides originating from samples 1 and 2 were labeled with iTRAQ reagents (iTRAQ 114 and iTRAQ 117) and the combined samples were analyzed with a nano-flow liquid chromatography system coupled online to a tandem mass spectrometer (LC-MS/MS) experiment followed by iTRAQ reporter ion quantification in the MS/MS spectra (Ross et al., 2004. Mol. Cell. Proteomics 3(12):1154-1169). Further experimental protocols can be found in WO2006/134056 and a previous publication (Bantscheff et al., 2007. Nature Biotechnology 25, 1035-1044). Sepharose-beads with the immobilized compound (100 μl beads per pull-down experiment) were equilibrated in lysis buffer and incubated with a cell lysate sample containing 50 mg of protein on an end-over-end shaker (Roto Shake Genie, Scientific Industries Inc.) for 2 hours at 4° C. Beads were collected, transferred to Mobicol-columns (MoBiTech 10055) and washed with 10 ml lysis buffer containing 0.4% NP40 detergent, followed by 5 ml lysis buffer containing 0.2% detergent. To elute bound proteins, 60 μl 2×SDS sample buffer was added to the column. The column was incubated for 30 minutes at 50° C. and the eluate was transferred to a siliconized microfuge tube by centrifugation. Proteins were then alkylated with 108 mM iodoacetamid. Proteins were then separated by SDS-Polyacrylamide electrophoresis (SDS-PAGE). The peptide extracts of samples treated with 10 μM of free compound (CZC31326) and the solvent control (0.5% DMSO) were treated with different variants of the isobaric tagging reagent (iTRAQ Reagents Multiplex Kit, part number 4352135, Applied Biosystems, Foster City, Calif., USA). The iTRAQ reagents are a set of multiplexed, amine-specific, stable isotope reagents that can label peptides on amino groups in up to four different biological samples enabling simultaneous identification and quantitation of peptides. The iTRAQ reagents were used according to instructions provided by the manufacturer. The samples were resuspended in 10 μl 50 mM TEAB solution, pH 8.5 and 10 μl ethanol were added. The iTRAQ reagent was dissolved in 120 μl ethanol and 10 μl of reagent solution were added to the sample. The labeling reaction was performed at room temperature for one hour on a horizontal shaker and stopped by adding 5 μl of 100 mM TEAB and 100 mM glycine in water. The two labeled sampled were then combined, dried in a vacuum centrifuge and resuspended in 10 μl of 0.1% formic acid in water. Relative protein quantitation was performed using peak areas of iTRAQ reporter ion signals essentially as described in an earlier publication (Bantscheff et al., 2007. Nature Biotechnology 25, 1035-1044).

The target of the next assay is T1, IRAK4 (Homo sapiens, UniProt Q9NWZ3).
T1 sequence (Q9NWZ3 1-460): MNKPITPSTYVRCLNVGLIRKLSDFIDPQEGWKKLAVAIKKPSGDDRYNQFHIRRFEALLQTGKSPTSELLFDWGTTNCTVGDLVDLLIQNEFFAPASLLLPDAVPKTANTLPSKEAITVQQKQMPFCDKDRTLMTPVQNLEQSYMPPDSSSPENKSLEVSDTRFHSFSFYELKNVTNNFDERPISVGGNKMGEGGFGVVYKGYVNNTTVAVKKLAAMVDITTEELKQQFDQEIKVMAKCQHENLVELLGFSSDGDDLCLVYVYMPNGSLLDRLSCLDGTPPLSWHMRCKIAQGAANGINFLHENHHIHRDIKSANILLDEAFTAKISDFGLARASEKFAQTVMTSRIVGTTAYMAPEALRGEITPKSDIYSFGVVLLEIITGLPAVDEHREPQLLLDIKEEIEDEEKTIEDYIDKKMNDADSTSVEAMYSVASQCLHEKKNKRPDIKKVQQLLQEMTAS
On the procedure: as §1

For another assay, the target named is IRAK3 (Homo sapiens, UniProt Q9Y616). On the procedure: as §1
In a further assay the target is MPSK1 (Homo sapiens, UniProt O75716). On the procedure: as §1
In another assay the target is TYK2 (Homo sapiens, UniProt P29597). On the procedure: as §1
The target in the next assay is T2, PIP5K2C (Homo sapiens, UniProt Q8TBX8).
T2 sequence (Q8TBX8 1-421): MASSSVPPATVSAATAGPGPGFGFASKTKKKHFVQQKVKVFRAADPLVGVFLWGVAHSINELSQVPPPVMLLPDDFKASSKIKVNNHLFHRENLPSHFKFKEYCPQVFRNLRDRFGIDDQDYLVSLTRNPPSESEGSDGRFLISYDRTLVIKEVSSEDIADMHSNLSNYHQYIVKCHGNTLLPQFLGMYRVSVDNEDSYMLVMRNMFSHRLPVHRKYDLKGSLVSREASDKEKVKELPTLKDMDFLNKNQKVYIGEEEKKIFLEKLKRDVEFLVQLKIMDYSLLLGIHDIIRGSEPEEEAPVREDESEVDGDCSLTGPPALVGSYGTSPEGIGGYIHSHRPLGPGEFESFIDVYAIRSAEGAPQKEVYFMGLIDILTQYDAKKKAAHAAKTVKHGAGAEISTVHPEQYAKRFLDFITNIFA
On the procedure: as §1

In the next assay the target is GSK3B (Homo sapiens, UniProt P49841). On the procedure: as §1
In the next assay the target is HIPK2 (Homo sapiens, UniProt Q9H2X6). On the procedure: as §1
The target of the next assay is MYT1 (Homo sapiens, UniProt Q99640). On the procedure: as §1
Chain of MYT1 (Q99640 whole entry): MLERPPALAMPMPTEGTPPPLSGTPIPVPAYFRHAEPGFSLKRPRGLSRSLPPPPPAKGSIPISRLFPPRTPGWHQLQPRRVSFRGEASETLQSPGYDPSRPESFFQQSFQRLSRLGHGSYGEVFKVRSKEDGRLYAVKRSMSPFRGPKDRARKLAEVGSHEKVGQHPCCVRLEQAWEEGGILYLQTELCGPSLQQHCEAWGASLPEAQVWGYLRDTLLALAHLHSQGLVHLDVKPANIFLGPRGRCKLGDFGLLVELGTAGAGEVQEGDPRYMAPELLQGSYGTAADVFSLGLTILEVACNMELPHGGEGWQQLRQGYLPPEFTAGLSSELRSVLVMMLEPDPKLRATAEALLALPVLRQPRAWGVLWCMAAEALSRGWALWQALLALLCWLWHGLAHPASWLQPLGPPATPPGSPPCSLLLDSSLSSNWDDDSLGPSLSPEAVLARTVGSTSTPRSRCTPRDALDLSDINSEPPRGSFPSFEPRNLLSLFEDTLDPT

Chain of HIPK2 (Q9H2X6 whole entry): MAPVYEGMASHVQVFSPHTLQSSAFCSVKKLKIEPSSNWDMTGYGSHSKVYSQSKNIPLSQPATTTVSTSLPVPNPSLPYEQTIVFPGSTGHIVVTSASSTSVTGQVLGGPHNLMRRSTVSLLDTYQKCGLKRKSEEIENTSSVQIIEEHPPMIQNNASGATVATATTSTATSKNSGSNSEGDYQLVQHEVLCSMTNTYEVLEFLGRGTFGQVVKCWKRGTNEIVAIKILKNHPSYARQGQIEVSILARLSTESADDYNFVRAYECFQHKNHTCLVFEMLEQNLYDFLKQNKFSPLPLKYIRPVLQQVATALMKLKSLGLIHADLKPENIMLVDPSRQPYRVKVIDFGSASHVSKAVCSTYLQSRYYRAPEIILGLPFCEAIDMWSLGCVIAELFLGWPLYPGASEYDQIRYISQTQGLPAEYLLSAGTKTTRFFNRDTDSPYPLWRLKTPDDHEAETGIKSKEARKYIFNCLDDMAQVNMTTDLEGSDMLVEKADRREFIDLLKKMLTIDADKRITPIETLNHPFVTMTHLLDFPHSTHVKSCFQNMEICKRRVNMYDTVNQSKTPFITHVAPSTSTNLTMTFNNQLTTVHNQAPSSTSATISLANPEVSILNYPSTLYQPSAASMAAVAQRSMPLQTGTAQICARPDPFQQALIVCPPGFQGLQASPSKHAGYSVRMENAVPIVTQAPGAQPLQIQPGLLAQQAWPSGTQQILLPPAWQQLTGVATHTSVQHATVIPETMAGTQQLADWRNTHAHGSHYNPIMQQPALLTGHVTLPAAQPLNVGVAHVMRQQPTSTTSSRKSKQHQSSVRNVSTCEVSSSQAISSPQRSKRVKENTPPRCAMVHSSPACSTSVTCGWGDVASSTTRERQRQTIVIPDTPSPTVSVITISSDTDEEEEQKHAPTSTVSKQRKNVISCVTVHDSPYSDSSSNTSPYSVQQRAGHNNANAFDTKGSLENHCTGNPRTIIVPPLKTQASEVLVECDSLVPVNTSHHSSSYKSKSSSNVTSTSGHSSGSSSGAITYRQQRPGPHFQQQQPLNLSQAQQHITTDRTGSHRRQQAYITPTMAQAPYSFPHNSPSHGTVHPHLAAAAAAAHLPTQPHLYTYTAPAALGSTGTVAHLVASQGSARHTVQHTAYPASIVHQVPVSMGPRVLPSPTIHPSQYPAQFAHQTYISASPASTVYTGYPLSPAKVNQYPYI
Chain of IRAK3 (Q9Y616 whole entry): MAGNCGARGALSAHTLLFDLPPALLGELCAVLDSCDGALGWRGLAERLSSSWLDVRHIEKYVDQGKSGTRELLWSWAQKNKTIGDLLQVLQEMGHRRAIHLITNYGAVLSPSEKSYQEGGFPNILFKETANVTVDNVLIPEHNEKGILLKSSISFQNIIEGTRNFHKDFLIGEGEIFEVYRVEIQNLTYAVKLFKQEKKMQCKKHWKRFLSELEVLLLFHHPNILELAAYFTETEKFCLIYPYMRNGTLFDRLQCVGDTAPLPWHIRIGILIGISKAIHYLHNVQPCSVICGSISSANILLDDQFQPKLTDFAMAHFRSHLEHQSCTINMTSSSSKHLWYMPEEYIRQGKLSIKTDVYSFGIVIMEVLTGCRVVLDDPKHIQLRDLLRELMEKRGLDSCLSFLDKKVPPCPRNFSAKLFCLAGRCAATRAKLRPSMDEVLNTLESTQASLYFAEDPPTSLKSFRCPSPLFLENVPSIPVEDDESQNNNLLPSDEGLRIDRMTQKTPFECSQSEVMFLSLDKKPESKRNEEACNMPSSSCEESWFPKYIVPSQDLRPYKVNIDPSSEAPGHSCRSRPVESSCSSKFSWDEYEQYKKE
Chain of GSK3B (P49841 whole entry): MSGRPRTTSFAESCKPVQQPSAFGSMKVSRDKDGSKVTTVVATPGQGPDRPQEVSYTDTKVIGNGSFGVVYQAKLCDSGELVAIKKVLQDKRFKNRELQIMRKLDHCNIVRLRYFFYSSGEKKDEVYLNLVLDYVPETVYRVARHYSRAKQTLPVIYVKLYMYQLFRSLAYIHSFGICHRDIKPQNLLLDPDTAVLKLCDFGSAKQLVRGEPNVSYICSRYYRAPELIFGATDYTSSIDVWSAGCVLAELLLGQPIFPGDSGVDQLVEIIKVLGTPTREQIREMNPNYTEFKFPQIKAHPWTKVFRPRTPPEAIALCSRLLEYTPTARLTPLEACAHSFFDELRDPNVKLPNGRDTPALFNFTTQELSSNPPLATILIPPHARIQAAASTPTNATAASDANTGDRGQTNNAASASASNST
Chain of MPSK1 (O75716 whole entry): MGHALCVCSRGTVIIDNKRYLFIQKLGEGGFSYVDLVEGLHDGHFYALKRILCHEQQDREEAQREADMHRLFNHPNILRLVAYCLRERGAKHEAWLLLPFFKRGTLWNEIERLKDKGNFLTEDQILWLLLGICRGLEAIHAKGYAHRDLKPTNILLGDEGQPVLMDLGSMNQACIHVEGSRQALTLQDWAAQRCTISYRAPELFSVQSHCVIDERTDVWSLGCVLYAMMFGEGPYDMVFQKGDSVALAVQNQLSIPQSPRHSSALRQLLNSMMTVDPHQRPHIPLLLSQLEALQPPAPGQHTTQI
Chain of IRAK1 (P51617 whole entry): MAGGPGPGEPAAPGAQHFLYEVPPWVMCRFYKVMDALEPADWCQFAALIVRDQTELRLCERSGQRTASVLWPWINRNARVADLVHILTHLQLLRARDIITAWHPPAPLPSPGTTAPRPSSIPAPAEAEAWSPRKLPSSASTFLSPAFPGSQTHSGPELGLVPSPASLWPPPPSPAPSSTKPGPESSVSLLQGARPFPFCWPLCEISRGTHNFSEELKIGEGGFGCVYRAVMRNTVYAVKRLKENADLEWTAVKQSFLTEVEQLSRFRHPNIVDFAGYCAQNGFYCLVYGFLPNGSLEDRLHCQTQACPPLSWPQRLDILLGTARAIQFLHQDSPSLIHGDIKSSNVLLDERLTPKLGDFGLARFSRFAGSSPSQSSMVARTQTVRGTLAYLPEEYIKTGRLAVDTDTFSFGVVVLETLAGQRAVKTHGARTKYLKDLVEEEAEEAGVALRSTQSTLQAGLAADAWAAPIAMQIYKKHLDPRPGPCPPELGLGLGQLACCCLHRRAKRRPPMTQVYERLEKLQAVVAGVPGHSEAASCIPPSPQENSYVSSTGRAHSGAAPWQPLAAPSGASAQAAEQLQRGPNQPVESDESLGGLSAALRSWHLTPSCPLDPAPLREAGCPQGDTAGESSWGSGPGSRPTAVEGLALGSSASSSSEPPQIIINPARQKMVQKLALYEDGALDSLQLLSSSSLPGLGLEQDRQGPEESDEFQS
Chain of TYK2 (P29597 whole entry): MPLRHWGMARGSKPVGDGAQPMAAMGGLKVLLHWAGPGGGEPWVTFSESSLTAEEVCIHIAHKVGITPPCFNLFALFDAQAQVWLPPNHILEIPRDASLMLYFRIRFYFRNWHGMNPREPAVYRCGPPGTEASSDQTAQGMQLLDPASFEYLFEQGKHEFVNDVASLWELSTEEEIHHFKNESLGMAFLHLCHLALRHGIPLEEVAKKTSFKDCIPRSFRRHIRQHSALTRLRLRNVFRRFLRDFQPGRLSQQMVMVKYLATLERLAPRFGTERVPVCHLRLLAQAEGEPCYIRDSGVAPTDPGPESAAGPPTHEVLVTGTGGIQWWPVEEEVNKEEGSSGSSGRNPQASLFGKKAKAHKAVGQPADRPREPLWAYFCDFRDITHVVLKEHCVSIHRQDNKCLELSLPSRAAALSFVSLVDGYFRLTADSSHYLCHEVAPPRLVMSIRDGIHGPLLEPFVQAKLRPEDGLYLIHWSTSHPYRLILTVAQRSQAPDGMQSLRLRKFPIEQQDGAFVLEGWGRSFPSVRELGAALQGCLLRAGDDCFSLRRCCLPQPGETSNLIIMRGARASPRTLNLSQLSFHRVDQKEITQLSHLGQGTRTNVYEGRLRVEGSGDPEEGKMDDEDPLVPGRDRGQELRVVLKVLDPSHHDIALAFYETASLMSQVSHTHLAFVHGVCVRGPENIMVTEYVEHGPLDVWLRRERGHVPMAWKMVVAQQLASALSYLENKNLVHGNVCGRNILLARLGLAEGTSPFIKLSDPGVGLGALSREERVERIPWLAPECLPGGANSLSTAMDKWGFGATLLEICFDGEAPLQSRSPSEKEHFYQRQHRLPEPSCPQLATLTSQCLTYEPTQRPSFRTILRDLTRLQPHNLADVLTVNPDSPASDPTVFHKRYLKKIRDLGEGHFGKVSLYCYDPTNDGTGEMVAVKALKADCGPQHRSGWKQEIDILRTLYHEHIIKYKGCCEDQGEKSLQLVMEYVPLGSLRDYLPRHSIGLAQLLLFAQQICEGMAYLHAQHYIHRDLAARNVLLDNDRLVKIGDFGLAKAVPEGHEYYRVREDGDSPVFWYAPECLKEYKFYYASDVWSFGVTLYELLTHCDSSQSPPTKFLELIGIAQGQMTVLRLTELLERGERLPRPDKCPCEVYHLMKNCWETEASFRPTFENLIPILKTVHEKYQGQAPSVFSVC

As for `CS(=O)(=O)Nc1ccccc1Nc1nc(Nc2cccc(OCCN)c2)ncc1Cl` [CZC31326, N-(2-(2-(3-(2-aminoethoxy)phenylamino)-5-chloropyrimidin-4-ylamino)phenyl)methanesulfonamide], the inhibition at 10 µM came out at 94.9% at IRAK1; 97.2% at IRAK3; 93.4% at MPSK1; 98.3% on PIP5K2C; 96.1% on GSK3B; 94.4% on HIPK2. Moreover, the figures for the Competition % at IRAK4, at TYK2 and at MYT1 were 97.5%, 97.1% and 90.5%, respectively.

The values are drawn from patent publication US20120270237A9, “METHODS FOR THE IDENTIFICATION OF KINASE INTERACTING MOLECULES AND FOR THE PURIFICATION OF KINASE PROTEINS” (Cellzone AG, priority 2009, published 2012).
